From ChEMBL document CHEMBL2029299, “Discovery of novel EGFR tyrosine kinase inhibitors by structure-based virtual screening” (Bioorg Med Chem Lett, 2012)

Key:
[1] = biological target: Epidermal growth factor receptor (Homo sapiens, UniProt P00533); test: Inhibition of EGFR after 50 mins by HTRF assay
A-431 = test: Antiproliferative activity against human A431 cells overexpressing EGFR after 72 hrs by MTT assay; conditions: A-431, 72 h
NIH3T3 = test: Antiproliferative activity against mouse NIH/3T3 cells after 72 hrs by MTT assay; conditions: NIH3T3, 72 h

Epidermal growth factor receptor, sequence (P00533 whole entry): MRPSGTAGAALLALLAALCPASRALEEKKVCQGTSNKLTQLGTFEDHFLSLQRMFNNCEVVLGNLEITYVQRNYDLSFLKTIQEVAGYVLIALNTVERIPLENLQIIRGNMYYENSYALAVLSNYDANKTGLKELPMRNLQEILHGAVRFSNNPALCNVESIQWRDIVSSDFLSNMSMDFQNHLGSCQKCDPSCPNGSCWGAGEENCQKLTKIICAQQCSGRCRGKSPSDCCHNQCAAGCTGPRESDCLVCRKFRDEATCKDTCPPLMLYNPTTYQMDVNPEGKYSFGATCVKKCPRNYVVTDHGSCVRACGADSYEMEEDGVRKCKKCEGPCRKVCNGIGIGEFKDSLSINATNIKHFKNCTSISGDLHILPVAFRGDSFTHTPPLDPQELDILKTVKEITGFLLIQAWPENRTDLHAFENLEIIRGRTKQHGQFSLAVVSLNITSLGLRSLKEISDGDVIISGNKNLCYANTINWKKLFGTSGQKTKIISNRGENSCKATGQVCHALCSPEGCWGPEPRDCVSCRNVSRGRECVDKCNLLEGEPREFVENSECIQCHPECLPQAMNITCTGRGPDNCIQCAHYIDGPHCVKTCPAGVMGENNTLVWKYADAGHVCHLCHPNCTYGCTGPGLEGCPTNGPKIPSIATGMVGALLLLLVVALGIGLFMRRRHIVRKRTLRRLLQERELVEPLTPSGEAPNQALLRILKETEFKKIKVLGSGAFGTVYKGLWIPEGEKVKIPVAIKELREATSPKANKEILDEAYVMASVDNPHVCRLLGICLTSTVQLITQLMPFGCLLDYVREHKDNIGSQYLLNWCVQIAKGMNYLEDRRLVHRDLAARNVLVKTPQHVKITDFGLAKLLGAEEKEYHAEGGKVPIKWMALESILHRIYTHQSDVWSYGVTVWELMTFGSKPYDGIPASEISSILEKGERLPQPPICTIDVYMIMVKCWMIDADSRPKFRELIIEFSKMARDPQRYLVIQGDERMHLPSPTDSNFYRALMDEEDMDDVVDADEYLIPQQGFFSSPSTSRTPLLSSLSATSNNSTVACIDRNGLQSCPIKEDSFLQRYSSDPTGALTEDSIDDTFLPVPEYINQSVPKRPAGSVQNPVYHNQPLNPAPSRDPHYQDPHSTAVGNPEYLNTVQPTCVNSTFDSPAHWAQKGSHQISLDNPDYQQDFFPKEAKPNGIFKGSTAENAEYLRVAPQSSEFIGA

Compound | IC50 [1] | IC50 (A-431) | IC50 (NIH3T3)
Cc1cccc(N2NC(=O)/C(=C/c3ccc(-c4ccccc4F)o3)C2=O)c1 | 23.1 µM | 30 µM | > 50 µM
CS(=O)(=O)CCNCc1ccc(-c2ccc3ncnc(Nc4ccc(OCc5cccc(F)c5)c(Cl)c4)c3c2)o1 [LAPATINIB] |  |  | 4.3 µM
CCOc1ccc(-c2cc(C(F)(F)F)c(C#N)c(SCC(=O)NCC(=O)O)n2)cc1 | 8.4 µM | > 50 µM | > 50 µM
O=C(Cn1c(-c2ccccc2)cc(=O)n2ncnc12)NNC(=S)Nc1ccccc1 | 6.8 µM | 19.4 µM | 20 µM
Cc1ccc(N2NC(=O)/C(=C\c3ccc(-c4cc([N+](=O)[O-])ccc4O)o3)C2=O)cc1C |  |  | 37.2 µM
Cc1nn(C)cc1C(=O)Nc1ccn(Cc2c(F)cccc2Cl)n1 |  |  | > 50 µM
C=C(N/N=C/c1cn[nH]c1-c1ccccc1)[C@H](C)Cc1ccccc1 |  |  | > 50 µM
O=C1NN(c2ccc(F)c(Cl)c2)C(=O)/C1=C\c1cccc(OC(=O)c2cccs2)c1 | 3.5 µM | 23.2 µM | 28.2 µM
O=C1NN(c2ccc(F)cc2)C(=O)/C1=C\c1cccc(OCc2ccccc2F)c1 | 5.6 µM | 18.9 µM | 23.1 µM
O=S(=O)(c1ccc(/N=C/c2cc(Br)ccc2O)cc1)N1CCCCC1 | 9.7 µM | 39.6 µM | > 50 µM
O=C(Cc1ccc(F)cc1)Nc1cc(SC[C@@H](O)CO)cc([N+](=O)[O-])c1 | 48.6 µM | 26.8 µM | > 50 µM
Cn1c(NCc2cccc(C(F)(F)F)c2)cc(=O)n(C)c1=O | 83.9 µM | > 50 µM | > 50 µM
Cc1ccc(N2NC(=O)/C(=C/c3ccc(OCc4ccccc4)cc3)C2=O)cc1Cl | 8.6 µM | 14 µM | 41.3 µM
Nc1nn2c(=O)cc(-c3ccccc3)[nH]c2c1/N=N/c1ccc2c(c1)OCO2 | 5.3 µM | 16.7 µM | 46 µM
